pIC50: −log10 of the molar value.
Experiments:
[1] = molecular target: BAT5 (60 kDa hydrolase) (Mus musculus, UniProt Q9Z1Q2); assay type: biochemical
[2] = molecular target: BAT5 (Mus musculus, UniProt Q9Z1Q2); assay: biochemical
[3] = molecular target: ABHD12 (Mus musculus, UniProt Q99LR1); assay: biochemical
[4] = molecular target: PLA2g7 (Mus musculus, UniProt Q60963); assay: biochemical
[5] = molecular target: FAAH (Mus musculus, UniProt O08914); assay: biochemical
[6] = system: brain serine hydrolases; assay type: biochemical, mouse
[7] = molecular target: KIAA1363 (Mus musculus, UniProt Q8BLF1); assay: biochemical
Chain of KIAA1363 (Q8BLF1 whole entry): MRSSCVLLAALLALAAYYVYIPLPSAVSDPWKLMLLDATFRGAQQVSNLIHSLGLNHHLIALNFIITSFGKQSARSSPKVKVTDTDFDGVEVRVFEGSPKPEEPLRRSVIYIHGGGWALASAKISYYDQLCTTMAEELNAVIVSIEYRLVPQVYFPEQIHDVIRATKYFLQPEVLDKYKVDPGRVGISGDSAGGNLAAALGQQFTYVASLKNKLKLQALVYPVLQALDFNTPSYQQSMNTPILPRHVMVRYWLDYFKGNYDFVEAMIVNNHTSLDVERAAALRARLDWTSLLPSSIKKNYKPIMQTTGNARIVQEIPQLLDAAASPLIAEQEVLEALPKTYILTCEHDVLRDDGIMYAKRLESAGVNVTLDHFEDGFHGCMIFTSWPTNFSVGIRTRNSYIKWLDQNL

Chain of PLA2g7 (Q60963 22-440): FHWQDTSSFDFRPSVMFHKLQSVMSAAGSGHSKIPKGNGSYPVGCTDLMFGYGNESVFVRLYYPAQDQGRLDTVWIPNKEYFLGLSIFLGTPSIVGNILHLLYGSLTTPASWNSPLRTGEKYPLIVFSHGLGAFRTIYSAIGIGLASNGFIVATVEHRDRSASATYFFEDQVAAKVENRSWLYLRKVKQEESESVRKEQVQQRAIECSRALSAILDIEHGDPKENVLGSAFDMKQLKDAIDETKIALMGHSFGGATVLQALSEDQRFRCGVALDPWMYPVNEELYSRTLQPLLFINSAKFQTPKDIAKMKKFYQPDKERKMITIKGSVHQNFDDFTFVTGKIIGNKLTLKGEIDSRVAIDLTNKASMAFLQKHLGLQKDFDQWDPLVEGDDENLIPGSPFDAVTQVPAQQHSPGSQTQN
Chain of BAT5 (Q9Z1Q2 whole entry): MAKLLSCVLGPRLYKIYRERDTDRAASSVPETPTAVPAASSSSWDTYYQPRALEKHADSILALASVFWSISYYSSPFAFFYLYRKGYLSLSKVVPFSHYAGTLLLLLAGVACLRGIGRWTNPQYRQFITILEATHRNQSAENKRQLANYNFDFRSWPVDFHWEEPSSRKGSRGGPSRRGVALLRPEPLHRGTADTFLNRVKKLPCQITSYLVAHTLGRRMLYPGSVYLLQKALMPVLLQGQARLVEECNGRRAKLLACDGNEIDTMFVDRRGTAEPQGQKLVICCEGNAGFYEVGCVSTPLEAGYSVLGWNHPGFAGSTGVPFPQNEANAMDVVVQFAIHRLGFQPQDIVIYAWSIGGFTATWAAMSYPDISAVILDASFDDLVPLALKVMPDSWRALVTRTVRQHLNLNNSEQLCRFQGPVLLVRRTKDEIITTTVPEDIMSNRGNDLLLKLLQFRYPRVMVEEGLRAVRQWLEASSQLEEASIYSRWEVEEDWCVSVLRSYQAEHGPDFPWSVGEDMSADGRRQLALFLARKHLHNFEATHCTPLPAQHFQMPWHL
Chain of FAAH (O08914 whole entry): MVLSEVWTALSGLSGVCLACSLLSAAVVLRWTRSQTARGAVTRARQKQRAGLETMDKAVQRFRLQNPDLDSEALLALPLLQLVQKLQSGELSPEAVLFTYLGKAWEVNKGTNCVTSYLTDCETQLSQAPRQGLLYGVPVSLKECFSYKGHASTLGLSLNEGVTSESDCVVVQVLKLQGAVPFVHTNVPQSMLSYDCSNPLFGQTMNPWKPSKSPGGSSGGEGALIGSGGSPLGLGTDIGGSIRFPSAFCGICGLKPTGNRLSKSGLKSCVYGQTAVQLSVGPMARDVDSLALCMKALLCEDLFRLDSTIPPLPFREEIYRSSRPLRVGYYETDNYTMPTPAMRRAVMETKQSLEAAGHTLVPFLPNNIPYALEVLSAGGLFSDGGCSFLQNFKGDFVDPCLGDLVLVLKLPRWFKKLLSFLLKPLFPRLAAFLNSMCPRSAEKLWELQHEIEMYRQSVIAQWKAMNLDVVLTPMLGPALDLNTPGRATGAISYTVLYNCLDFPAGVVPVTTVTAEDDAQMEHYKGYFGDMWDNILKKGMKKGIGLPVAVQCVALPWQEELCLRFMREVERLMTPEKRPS
Chain of BAT5 (60 kDa hydrolase) (Q9Z1Q2 whole entry): as the sequence (Q9Z1Q2 whole entry) above
Chain of ABHD12 (Q99LR1 whole entry): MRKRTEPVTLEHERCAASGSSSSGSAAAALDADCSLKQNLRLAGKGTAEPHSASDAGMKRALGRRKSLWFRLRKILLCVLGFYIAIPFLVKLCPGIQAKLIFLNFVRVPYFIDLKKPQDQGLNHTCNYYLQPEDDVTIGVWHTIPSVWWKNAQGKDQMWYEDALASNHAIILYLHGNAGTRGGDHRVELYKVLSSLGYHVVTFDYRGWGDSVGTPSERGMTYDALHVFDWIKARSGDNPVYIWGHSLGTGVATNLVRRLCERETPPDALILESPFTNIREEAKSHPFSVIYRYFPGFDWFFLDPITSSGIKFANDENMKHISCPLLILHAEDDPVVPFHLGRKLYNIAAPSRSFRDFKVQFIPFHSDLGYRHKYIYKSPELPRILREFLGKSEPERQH

Compound	sensitivity of 60 kDa hydrolase (tentatively BAT5) to inhibitor [1]	pIC50 [2]	inhibition of recombinant BAT5 (in words) [2]	pIC50 [3]	pIC50 [4]	inhibition of recombinant PLA2g7 (in words) [4]	pIC50 [5]	inhibition of recombinant FAAH (in words) [5]	number of hydrolase activities whose labeling is blocked [6]	pIC50 [7]	inhibition of recombinant KIAA1363 (in words) [7]
CCCCCCCCCCC[C@@H](C[C@@H]1OC(=O)[C@H]1CCCCCC)OC(=O)[C@H](CC(C)C)NC=O [THL, tetrahydrolipstatin]	sensitive	> 7.00	inhibited	> 7.00	> 7.00	inhibited	–	–	–	–	–
O=C(NCCCCCCNC(=O)ON=C1CCCCC1)ON=C1CCCCC1 [RHC80267]	sensitive	4.15 to 5.00	inhibited	–	4.15 to 5.00	inhibited	4.15 to 5.00	inhibited	three	4.15 to 5.00	inhibited

From paper PMC2634297 (Bioorganic & medicinal chemistry letters, 2008)
